From US6451832B2, “Benzimidazoles with antithrombotic activity” (Boehringer Ingelheim Pharma KG, priority 1999, dated 2002)

Tests used:
human citrated plasma = assay: Prolongation of the aPTT time in human citrated plasma (Biomatic B10 coagulometer); format: biochemical; details: concentration at which the aPTT time is doubled compared with the control, 37° C.
Protocol: were investigated as follows for their effects on prolonging the aPTT time:
Materials: plasma, from human citrated blood. PTT reagent, Boehringer Mannheim (524298), Calcium solution (0.025 mol/l), Behring Werke, Marburg (ORH 056/57), Diethylbarbiturate acetate buffer, Behring Werke, Marburg (ORWH 60/61), Biomatic B10 coagulometer, Desaga, Wiesloch.
The aPTT time was determined using a Biomatic B10 coagulometer made by Messrs. Desaga.
The test substance was placed in the test tubes prescribed by the manufacturer together with 0.1 ml of human citrated plasma and 0.1 ml of PTT reagent. The mixture was incubated for three minutes at 37° C. The clotting reaction was started by the addition of 0.1 ml of calcium solution. The time is measured using the apparatus from the addition of the calcium solution up to the clotting of the mixture. Mixtures to which 0.1 ml of DBA buffer were added were used as the controls.
According to the definition, a dosage-activity curve was used to determine the effective concentration of the substance, i.e. the concentration at which the aPTT time is doubled compared with the control.

[1] = Oral resorption of prodrugs

oral resorption [1]	SMILES	aPTT time (ED200 in μM) (human citrated plasma)
–	Cl.Cl.Cn1c(CNc2ccc(C(=N)N)cc2)nc2cc(C(C)(NCC(=O)O)C(=O)N3CC=CC3)ccc21 (centres unmarked) [C, 2-(4-amidinophenylaminomethyl)-1-methyl-5-[1-(carboxymethylamino)-1-(2,5-dihydropyrrolocarbonyl)-ethyl]-benzimidazole-dihydrochloride]	0.22 µM
good oral resorption	CCCOC(=O)CN[C@@](C)(C(=O)N1CCCC1)c1ccc2c(c1)nc(CNc1ccc(C(=N)NC(=O)c3ccccc3)cc1)n2C [3(2), (R)-2-[4-(N-phenylcarbonylamidino)-phenylaminomethyl]-1-methyl-5-[1-(n-propyloxycarbonylmethylamino)-1-(pyrrolidinocarbonyl)-ethyl]-benzimidazole]	–
good oral resorption	CCCCOC(=O)CN[C@@](C)(C(=O)N1CCCC1)c1ccc2c(c1)nc(CNc1ccc(C(=N)NC(=O)c3ccccc3)cc1)n2C [Example 2, (R)-2-[4-(N-phenylcarbonylamidino)-phenylaminomethyl]-1-methyl-5-[1-(n-butyloxycarbonylmethylamino)-1-(pyrrolidinocarbonyl)-ethyl]-benzimidazole]	–
–	CCOC(=O)CNC(C)(C(=O)N1CC=CC1)c1ccc2c(c1)nc(CNc1ccc(C(=N)N)cc1)n2C.Cl.Cl (centres unmarked) [A, 2-(4-amidinophenylaminomethyl)-1-methyl-5-[1-(ethoxycarbonylmethylamino)-1-(2,5-dihydropyrrolocarbonyl)-ethyl]-benzimidazole-dihydrochloride]	0.13 µM
–	C[C@@H]1CCCN1C(=O)[C@](C)(NCC(=O)O)c1ccc2c(c1)nc(CNc1ccc(C(=N)N)cc1)n2C.Cl.Cl [B, (R)-2-(4-amidinophenylaminomethyl)-1-methyl-5-[1-(carboxymethylamino)-1-[(R,S)-2-methyl-pyrrolidinocarbonyl]-ethyl]-benzimidazole-dihydrochloride]	0.12 µM
